In assay [1] the test system is S. pneumoniae. Format: cell-based, Streptococcus pneumoniae. The conditions noted are these: for Overall EP: proportion of the 60 pneumococcal isolates inhibited within the MIC range. From the text:
(§1) All bacterial strains were obtained from Department of Medical Microbiology, University of Malaya. Clinical isolates were previously obtained from University of Malaya Medical Centre and maintained in the laboratory. Sheep blood agar was used for pneumococcal cultivation purpose. Nutrient agar was used for cultivating E. coli ATCC 25922, S. aureus ATCC 25923, and P. aeruginosa ATCC 15442, Acinetobacter baumanii ATCC 15308, and one clinical isolate for each MRSA, E. cloacae, Citrobacter spp., and K. pneumoniae. For antimicrobial testing, Mueller-Hinton agar (MHA) and cationically-adjusted MHB (CAMHB) were prepared according to the Clinical and Laboratory Standard Institute guidelines. MHA for S. pneumoniae was supplemented with 5% (v/v) defibrinated sheep blood and 5% laked horse blood for CAMHB. All bacterial cultures were stored in multiple vials in brain heart infusion broth supplemented with 10% (v/v) glycerol at −80°C to avoid repeated freeze-thawed cycles on the cells. All freeze-stocked strains were passaged twice prior to experimentation.
(§2) Procedures were performed to determine the MIC of peptides according to the CLSI guidelines[21] against 60 pneumococcal isolates which consisted of 20 isolates each for PRSP, PISP, and PSSP. Strains were grown for 18–24 hrs at 37°C under 5% CO2. Direct suspension of the colonies were made in CAMHB and adjusted to OD625 0.08–0.1 which corresponds to 1 ~ 2 × 10^8 CFU/ml followed by serial ten-fold dilutions to give 1 × 10^6 CFU/ml. Fifty microliters of bacterial suspension was then aliquoted to 96-well round bottom microtiter plates containing equal volume of serially diluted peptides to give final concentrations of peptides encompassing the range of 1.96–250 μg/ml. […] The plates were incubated for 18–24 hrs at 37°C under 5% CO2. MIC was read as the concentration of peptide producing complete inhibition on the visible growth of the test organism. Results were pooled from three independent experiments. MIC range was defined as the range of concentrations where the peptides produce detectable antimicrobial activity. Effective percentage (EP) was the proportion of pneumococcal isolates inhibited within the MIC range. Since the isolates tested were obtained prior to 2008 where major revision in antibiotic susceptibility breakpoints were introduced, thus the pneumococci were defined according to the PEN susceptibility breakpoint (prior 2008) which corresponds to the PEN (oral penicillin V) breakpoint of the revised criteria.

Assay [2] relates to penicillin-intermediate S. pneumoniae (PISP). It is filed as cell-based, Streptococcus pneumoniae. The conditions noted are these: for MIC, PISP: MIC range over 20 PISP isolates, CLSI broth microdilution, CAMHB with 5% laked horse blood, 18–24 hrs 37°C 5% CO2, peptides 1.96–250 μg/ml, three independent experiments; for EP %, PISP: effective percentage: proportion of isolates inhibited within the MIC range.
From the text: as §1, §2
Background: Broth dilution looks for growth in wells or tubes with falling amounts of substance.

Assay [3] concerns penicillin-susceptible S. pneumoniae (PSSP). Format: cell-based, Streptococcus pneumoniae. The conditions noted are these: for MIC, PSSP: MIC range over 20 PSSP isolates, CLSI broth microdilution, CAMHB with 5% laked horse blood, 18–24 hrs 37°C 5% CO2, peptides 1.96–250 μg/ml, three independent experiments; for EP %, PSSP: effective percentage: proportion of isolates inhibited within the MIC range.
From the text: as §1, §2

Where no end group is shown, it is not given here.

GLFDIWAWWRWRR-NH2 [DM2] returned a difference between lowest and highest detectable MIC against S. pneumoniae of 32 fold. In addition, in assay [1], the “Overall MIC” value is 7.81 to 250 µg/mL and the “Overall EP” value amounted to 100.0%. In addition, in assay [2], the “MIC, PISP” value lay in the range of 7.81 to 250 µg/mL and the “EP %, PISP” value was “(100.0) %”. Further, in assay [3], the “MIC, PSSP” value fell in the range of 15.63 to 250 µg/mL and the “EP %, PSSP” value was “(100.0) %”.

For GLFDIWKKLRWRR-NH2 [DM5], in assay [1], the “Overall MIC” value lay in the range of 15.63 to 125 µg/mL and the “Overall EP” value was 100.0%. For the same substance, in assay [2], the “MIC, PISP” value is 15.63 to 125 µg/mL and the “EP %, PISP” value was “(100.0) %”. In assay [3], the “MIC, PSSP” value was 15.63 to 125 µg/mL and the “EP %, PSSP” value is listed as “(100.0) %”.

GLFDIWKKWRWRR-NH2 [DM4]: in assay [1], the “Overall MIC” value is 15.63 to 125 µg/mL and the “Overall EP” value came to 100.0%. In addition, in assay [2], the “MIC, PISP” value fell in the range of 15.63 to 125 µg/mL and the “EP %, PISP” value is listed as “(100.0) %”. In assay [3], the “MIC, PSSP” value lay in the range of 15.63 to 125 µg/mL and the “EP %, PSSP” value is “(100.0) %”.

For the substance GLFDIWKWWRWRR-NH2 [DM3], in assay [1], the “Overall MIC” value lay in the range of 7.81 to 62.5 µg/mL and the “Overall EP” value is recorded as 100.0%. Also, in assay [2], the “MIC, PISP” value was in the range of 7.81 to 62.5 µg/mL and the “EP %, PISP” value is “(100.0) %”. In assay [3], the “MIC, PSSP” value was 7.81 to 62.5 µg/mL and the “EP %, PSSP” value is listed as “(100.0) %”.

As to GLFDKWAWWRWRR-NH2 [DM1], in assay [1], the “Overall MIC” value lay in the range of 31.3 to 250 µg/mL and the “Overall EP” value is 100.0%. Also, in assay [2], the “MIC, PISP” value fell in the range of 31.3 to 125 µg/mL and the “EP %, PISP” value is “(100.0) %”. In addition, in assay [3], the “MIC, PSSP” value was in the range of 62.5 to 250 µg/mL and the “EP %, PSSP” value is given as “(100.0) %”.

The values are drawn from article PMC4434909, “In vitro properties of designed antimicrobial peptides that exhibit potent antipneumococcal activity and produces synergism in combination with penicillin” (Scientific Reports, 2015).
